Molecular target: Metabotropic glutamate receptor 5 (Homo sapiens) (UniProt P41594)
Experiment: Binding affinity to mGluR5 (unknown origin) assessed as association rate constant

Chain of Metabotropic glutamate receptor 5 (Homo sapiens) (P41594 21-1212 limits assumed): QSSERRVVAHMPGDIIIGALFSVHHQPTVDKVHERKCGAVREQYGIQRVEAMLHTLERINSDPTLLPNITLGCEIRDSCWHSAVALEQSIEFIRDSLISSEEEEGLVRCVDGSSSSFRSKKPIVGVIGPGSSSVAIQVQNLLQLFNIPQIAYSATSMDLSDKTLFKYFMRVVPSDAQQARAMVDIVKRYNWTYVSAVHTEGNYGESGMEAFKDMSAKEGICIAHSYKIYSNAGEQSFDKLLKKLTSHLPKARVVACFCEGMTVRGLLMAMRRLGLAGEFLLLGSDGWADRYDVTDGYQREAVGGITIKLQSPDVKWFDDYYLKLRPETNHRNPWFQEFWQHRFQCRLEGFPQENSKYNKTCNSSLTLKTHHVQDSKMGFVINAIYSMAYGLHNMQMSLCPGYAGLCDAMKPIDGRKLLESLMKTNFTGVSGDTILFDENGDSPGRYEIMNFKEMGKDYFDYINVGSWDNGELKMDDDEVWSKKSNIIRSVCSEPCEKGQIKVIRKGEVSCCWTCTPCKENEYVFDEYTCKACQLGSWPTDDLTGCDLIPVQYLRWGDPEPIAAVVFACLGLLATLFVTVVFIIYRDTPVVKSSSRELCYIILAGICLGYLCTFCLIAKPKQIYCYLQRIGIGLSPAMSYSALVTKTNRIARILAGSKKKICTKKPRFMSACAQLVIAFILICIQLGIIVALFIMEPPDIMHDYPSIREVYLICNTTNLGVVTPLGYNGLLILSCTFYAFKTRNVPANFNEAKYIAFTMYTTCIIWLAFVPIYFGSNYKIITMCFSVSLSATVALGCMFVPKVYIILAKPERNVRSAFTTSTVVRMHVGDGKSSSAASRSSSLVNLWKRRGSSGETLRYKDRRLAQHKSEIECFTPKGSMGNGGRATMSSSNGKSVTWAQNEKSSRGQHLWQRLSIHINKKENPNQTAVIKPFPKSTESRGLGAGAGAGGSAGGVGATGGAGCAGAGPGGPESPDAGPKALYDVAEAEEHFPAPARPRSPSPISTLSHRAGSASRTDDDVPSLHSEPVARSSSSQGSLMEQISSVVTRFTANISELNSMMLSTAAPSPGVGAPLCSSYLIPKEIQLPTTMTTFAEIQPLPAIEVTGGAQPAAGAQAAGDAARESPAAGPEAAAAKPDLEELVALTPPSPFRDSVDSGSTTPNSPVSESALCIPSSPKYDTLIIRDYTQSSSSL

O=C(Nc1ccc(-c2ccn3c(CC4CC4)nnc3c2C(F)(F)F)cc1)c1ccc(S(=O)(=O)F)cc1
K: 3.2 ×10³ /M/s
